Values joined by “and” are separate entries in the source; they are usually repeats but may differ in a detail not shown here. Equal values may be shown once. A value given as a limit tells only on which side of the number the result lay.

One series has as its target Trypsin (Homo sapiens) (UniProt P07477+P07478+P35030). As to the kind of experiment: Inhibition of trypsin. In kind it is protein assay.
A further series addresses Cytochrome P450 3A4 (Homo sapiens, UniProt P08684). As to the kind of experiment: Inhibition of CYP3A4. Type of series: ADME.
The target of a further series is T1, Cytochrome P450 1A2 (Homo sapiens, UniProt P05177).
T1 sequence (P05177 whole entry): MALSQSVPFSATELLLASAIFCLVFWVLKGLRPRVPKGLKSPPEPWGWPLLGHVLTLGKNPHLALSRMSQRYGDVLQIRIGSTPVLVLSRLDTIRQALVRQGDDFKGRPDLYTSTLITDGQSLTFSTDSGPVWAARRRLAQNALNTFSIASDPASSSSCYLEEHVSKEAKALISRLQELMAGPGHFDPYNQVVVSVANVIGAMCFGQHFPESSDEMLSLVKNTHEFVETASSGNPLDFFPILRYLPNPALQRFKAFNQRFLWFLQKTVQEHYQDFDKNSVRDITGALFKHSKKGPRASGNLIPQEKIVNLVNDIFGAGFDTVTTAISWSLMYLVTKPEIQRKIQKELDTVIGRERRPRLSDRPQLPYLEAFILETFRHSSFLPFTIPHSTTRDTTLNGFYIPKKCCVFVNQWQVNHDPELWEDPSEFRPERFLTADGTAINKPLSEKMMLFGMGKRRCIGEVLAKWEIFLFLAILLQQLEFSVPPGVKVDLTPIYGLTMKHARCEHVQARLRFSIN
As to the kind of experiment: Inhibition of CYP1A2. In kind it is ADME.

Series [1] has as its target T2, Coagulation factor VII (Homo sapiens) (UniProt P08709).
T2 sequence (whole entry): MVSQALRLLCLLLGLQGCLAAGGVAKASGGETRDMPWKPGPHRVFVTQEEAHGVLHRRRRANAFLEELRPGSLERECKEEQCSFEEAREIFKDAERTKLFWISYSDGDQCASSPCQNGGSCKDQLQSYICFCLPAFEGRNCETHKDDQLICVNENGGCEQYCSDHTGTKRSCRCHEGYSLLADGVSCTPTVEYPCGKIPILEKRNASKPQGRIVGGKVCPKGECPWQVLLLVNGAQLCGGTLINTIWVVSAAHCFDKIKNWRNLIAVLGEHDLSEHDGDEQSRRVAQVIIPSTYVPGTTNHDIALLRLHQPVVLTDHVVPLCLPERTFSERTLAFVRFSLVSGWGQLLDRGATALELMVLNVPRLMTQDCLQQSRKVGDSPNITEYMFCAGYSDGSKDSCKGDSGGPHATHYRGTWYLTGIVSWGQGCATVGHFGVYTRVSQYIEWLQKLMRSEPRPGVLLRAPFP
Put plainly: Inhibition of F7a.

For another series, the system named is Plasma. As to the kind of experiment: Anticoagulant activity in human plasma assessed as concentration required to double prothrombin time. Type of series: functional.
The next series concerns the target Cytochrome P450 2D6 (Homo sapiens, UniProt P10635). As to the kind of experiment: Inhibition of CYP2D6. In kind it is ADME.
A short description of series [2]: Permeability from apical to basolateral side of the Caco-2 cell membrane at pH 6.5. The settings on record: human, Caco-2, pH 6.5; read-out: permeability. In kind it is ADME, cell-based. (In general: Passage across Caco-2 layers is used to estimate intestinal permeability.)
The target in the next series is Cytochrome P450 2C9 (Homo sapiens, UniProt P11712). Put plainly: Inhibition of CYP2C9. Type of series: ADME.
Series [3] addresses Plasma kallikrein (Homo sapiens) (UniProt P03952). As to the kind of experiment: Inhibition of plasma kallikrein. In kind it is cell-free.
Series [4] concerns the target Coagulation factor IX (Homo sapiens) (UniProt P00740). Put plainly: Inhibition of F9a.
Series [5] addresses Prothrombin (Homo sapiens) (UniProt P00734). As to the kind of experiment: Inhibition of thrombin.
The target of a further series is Cytochrome P450 2C19 (Homo sapiens, UniProt P33261). As to the kind of experiment: Inhibition of CYP2C19. In kind it is ADME.
In the next series the target is Coagulation factor X (Homo sapiens, UniProt P00742). Put plainly: Inhibition of F10a.
Coagulation factor X, sequence (P00742 41-179 limits assumed): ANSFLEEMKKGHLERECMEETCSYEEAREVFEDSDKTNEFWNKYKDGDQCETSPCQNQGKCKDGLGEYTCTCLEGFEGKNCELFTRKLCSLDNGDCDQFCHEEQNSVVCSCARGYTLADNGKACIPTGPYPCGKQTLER
Coagulation factor X, sequence (P00742 235-488 limits assumed): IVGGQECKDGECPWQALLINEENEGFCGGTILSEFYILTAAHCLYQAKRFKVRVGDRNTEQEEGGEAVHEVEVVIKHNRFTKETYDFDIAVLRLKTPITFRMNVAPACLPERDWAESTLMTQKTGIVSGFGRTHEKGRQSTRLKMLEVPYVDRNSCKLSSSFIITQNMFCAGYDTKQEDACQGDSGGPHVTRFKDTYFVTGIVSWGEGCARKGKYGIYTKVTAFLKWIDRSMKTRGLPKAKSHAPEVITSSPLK

Cytochrome P450 3A4, sequence (P08684 whole entry): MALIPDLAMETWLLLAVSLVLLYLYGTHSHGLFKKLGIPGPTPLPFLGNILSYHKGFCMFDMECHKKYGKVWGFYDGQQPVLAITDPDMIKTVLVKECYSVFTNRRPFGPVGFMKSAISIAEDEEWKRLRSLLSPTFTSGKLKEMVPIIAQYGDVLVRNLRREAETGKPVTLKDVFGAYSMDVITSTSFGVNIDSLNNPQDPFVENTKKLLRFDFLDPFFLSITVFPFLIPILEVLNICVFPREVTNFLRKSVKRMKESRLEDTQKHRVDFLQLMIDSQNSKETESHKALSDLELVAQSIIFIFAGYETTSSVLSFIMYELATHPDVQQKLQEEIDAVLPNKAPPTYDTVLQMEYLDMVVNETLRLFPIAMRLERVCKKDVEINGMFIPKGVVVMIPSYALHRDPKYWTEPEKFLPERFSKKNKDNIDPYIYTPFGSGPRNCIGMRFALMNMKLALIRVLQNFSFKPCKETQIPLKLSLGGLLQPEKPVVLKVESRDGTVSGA
Coagulation factor IX (Homo sapiens), sequence (P00740 47-191 limits assumed): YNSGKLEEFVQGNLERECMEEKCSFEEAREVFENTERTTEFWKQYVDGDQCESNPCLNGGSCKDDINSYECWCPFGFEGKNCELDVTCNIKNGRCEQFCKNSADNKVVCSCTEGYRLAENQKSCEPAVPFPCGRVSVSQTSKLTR
Coagulation factor IX (Homo sapiens), sequence (P00740 227-461 limits assumed): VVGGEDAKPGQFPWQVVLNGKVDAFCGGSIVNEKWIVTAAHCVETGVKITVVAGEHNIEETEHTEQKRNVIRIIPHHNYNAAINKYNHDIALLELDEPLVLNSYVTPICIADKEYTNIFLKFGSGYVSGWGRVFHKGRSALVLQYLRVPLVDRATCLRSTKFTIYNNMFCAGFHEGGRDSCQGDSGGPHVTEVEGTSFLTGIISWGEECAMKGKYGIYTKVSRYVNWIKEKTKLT
Cytochrome P450 2C9, sequence (P11712 whole entry): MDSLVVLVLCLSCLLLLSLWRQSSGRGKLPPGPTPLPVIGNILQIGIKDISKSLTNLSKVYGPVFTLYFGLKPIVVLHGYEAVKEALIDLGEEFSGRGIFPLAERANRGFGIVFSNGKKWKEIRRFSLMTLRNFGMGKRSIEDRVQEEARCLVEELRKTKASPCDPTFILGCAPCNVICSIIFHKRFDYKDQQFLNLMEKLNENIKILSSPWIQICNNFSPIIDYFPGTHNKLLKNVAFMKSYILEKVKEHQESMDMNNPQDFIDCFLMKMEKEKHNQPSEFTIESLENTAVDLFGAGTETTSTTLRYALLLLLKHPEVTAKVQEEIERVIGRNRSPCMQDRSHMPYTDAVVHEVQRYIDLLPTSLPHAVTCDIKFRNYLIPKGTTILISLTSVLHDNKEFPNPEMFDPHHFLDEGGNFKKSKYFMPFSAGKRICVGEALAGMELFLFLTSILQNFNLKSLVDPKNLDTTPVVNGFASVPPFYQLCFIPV
Cytochrome P450 2D6, sequence (P10635 whole entry): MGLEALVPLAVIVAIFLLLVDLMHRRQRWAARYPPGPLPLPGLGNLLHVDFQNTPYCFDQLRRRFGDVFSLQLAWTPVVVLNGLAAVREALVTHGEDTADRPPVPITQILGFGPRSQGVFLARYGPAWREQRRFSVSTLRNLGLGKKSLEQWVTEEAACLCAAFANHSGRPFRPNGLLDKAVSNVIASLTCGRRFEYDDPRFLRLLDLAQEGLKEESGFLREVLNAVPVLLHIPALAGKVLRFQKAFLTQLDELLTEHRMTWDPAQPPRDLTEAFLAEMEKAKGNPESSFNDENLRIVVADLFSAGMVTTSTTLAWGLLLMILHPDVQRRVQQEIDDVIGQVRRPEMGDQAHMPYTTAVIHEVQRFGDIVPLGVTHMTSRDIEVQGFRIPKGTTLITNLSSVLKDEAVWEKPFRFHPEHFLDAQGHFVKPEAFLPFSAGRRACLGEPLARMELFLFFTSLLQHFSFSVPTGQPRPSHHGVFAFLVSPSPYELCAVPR
Plasma kallikrein (Homo sapiens), sequence (P03952 20-390 limits assumed): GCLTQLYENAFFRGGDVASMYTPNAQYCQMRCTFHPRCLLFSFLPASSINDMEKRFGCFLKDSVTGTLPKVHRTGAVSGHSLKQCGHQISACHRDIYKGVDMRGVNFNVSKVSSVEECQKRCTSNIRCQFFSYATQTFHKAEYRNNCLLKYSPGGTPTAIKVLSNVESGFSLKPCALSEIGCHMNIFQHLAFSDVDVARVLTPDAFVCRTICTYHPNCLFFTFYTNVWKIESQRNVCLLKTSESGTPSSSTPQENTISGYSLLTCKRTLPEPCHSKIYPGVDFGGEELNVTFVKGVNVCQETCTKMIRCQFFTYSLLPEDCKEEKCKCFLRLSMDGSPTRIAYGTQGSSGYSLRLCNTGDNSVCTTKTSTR
Plasma kallikrein (Homo sapiens), sequence (P03952 391-638 limits assumed): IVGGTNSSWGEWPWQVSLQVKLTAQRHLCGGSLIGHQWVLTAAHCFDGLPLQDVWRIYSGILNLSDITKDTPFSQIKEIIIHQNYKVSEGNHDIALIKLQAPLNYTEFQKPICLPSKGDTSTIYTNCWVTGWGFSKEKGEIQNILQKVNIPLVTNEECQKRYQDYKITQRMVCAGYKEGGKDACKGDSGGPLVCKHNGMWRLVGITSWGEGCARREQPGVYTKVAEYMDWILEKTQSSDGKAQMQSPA
Cytochrome P450 2C19, sequence (P33261 whole entry): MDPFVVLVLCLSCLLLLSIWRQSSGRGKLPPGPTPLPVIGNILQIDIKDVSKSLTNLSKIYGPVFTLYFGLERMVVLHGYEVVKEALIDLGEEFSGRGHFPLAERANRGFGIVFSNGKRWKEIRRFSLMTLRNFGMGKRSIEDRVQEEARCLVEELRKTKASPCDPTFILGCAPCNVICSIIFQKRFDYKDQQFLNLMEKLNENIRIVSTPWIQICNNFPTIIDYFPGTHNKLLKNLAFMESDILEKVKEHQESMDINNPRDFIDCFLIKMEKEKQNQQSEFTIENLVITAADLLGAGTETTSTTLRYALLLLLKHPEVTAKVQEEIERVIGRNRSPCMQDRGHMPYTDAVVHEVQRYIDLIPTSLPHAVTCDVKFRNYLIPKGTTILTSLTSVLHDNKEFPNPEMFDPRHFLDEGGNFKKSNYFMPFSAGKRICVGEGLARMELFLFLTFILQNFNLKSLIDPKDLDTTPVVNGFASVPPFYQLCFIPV

A word on the IC50: it is the concentration needed to halve the response being measured. A lower IC50 goes with inhibition by little substance. With `O=C(C1CCN(c2ccncc2)CC1)N1CC[C@@H](CNS(=O)(=O)c2ccc(-c3ccc(Cl)s3)s2)C1`, the Activity on Trypsin (Homo sapiens) was more than 30 µM; in [1] it was more than 30 µM; with Plasma, 6.8 µM; in series [3], more than 30 µM; in series [4], more than 30 µM; in [5], more than 30 µM. For the same compound, the IC50 is 2330 nM and 1000 nM against Cytochrome P450 3A4; more than 20000 nM against Cytochrome P450 1A2; 7970 nM at Cytochrome P450 2D6; 1470 nM against Cytochrome P450 2C9; 14100 nM against Cytochrome P450 2C19; 18 nM against Coagulation factor X. In addition, the Papp A→B in series [2] is less than 1.5 ×10⁻⁶ cm/s.

For the compound `O=C(C1CCN(c2ccncc2)CC1)N1CCC(CNS(=O)(=O)/C=C/c2ccc(Br)s2)C1` (racemic), the Activity with Plasma came to 8.7 µM. For the same compound, the IC50 against Coagulation factor X stood at 86 nM.

Regarding `O=C(C1CCN(c2ccncc2)CC1)N1CCC(CNS(=O)(=O)c2ccc3ccccc3c2)C1` (racemic), half-maximal inhibition against Coagulation factor X (IC50) was put at 1100 nM. This counts as single-digit micromolar.

Consider `O=C(C(=O)N1CCC[C@H]1CN1CCCC1)N1CC[C@H](CNS(=O)(=O)/C=C/c2ccc(Cl)s2)C1`, for which, in the series with Plasma, the Activity worked out at 8 µM. The IC50 against Coagulation factor X turned out to be 70 nM.

On Coagulation factor X, `Cc1nccc(N2CCC(C(=O)N3CC[C@H](CNS(=O)(=O)/C=C/c4ccc(Cl)s4)C3)CC2)n1` returned an IC50 of 718 nM.

For the compound `O=C(N1CC[C@H](CNS(=O)(=O)c2ccc(-c3ccc(Cl)s3)s2)C1)N1CCC[C@H]1CN1CCCC1`, in the series on Plasma, the Activity was found to be 13 µM. The compound further showed an IC50 at Coagulation factor X of 40 nM.

Consider `O=C(C1CCN(c2ccncc2)CC1)N1CCC(CNS(=O)(=O)/C=C/c2cccc(Cl)c2)C1` (racemic), for which the IC50 on Coagulation factor X was found to be 4300 nM.

For `Cc1nccc(N2CCC(C(=O)N3CC[C@@H](CNS(=O)(=O)c4ccc(-c5ccc(Cl)s5)s4)C3)CC2)n1`, the Activity in the series with Plasma was 50 µM. On Coagulation factor X, the midpoint of inhibition, the IC50, lay at 61 nM.

`O=C(C1CCN(c2ccncc2)CC1)N1CC[C@@H](CNS(=O)(=O)/C=C/c2ccc(Br)s2)C1`: the Activity with Plasma was found to be 5 µM. This compound also displayed an IC50 on Coagulation factor X of 22 nM.

With `O=C(C1CCN(c2ccncc2)CC1)N1CC[C@H](CNS(=O)(=O)/C=C/c2ccc(Cl)s2)C1`, the Activity with Plasma worked out at 13 µM.

In the case of `O=C(C(=O)N1CCC[C@H]1CN1CCCC1)N1CC[C@@H](CNS(=O)(=O)/C=C/c2ccc(Cl)s2)C1`, the IC50 against Coagulation factor X worked out at 436 nM. In other words, the sub-micromolar range.

Regarding `NS(=O)(=O)c1ccccc1-c1ccc(C(=O)N2CC[C@@H](CNS(=O)(=O)/C=C/c3ccc(Cl)s3)C2)cc1`, inhibition against Coagulation factor X was half-maximal at 1900 nM (IC50). This IC50 is about 4.4-fold higher than that of the compound before.

On to `O=C(C1CCN(c2ccncc2)CC1)N1CCC(CNS(=O)(=O)c2cc3ccc(Cl)cc3s2)C1` (racemic), for which the Activity in the series with Plasma stood at 45 µM. Inhibition at Coagulation factor X was half-maximal at 255 nM (IC50).

With `Cc1nccc(N2CCC(C(=O)N3CC[C@@H](CNS(=O)(=O)/C=C/c4ccc(Cl)s4)C3)CC2)n1`, in the series on Plasma, the Activity was found to be 28 µM. Besides, half-maximal inhibition on Coagulation factor X (IC50) was put at 230 nM.

On to `O=C(C1CCN(c2ccncc2)CC1)N1CCC(CNS(=O)(=O)/C=C/c2ccc(Cl)cc2)C1` (racemic), for which the Activity in the series with Plasma was found to be 32 µM. At Coagulation factor X, this compound yielded an IC50 of 493 nM.

On to `O=C(c1ccc(-n2ccnc2)cc1)N1CC[C@H](CNS(=O)(=O)/C=C/c2ccc(Cl)s2)C1`, for which, on Coagulation factor X, the IC50 is 1300 nM. This lies in the single-digit micromolar range.

As to `O=C(N1CCCC1)N1CC[C@H](CNS(=O)(=O)c2ccc(-c3ccc(Cl)s3)s2)C1`, in the series with Plasma, the Activity was determined as 130 µM. On Coagulation factor X, 130 nM corresponded to half-maximal inhibition (IC50).

As to `O=C(C1CCN(c2ccncc2)CC1)N1CC[C@@H](CNS(=O)(=O)/C=C/c2ccc(Cl)s2)C1`, the Activity with Plasma was 1.7 µM.

Regarding `O=C(C1CCN(c2ccncc2)CC1)N1CCC(CNS(=O)(=O)c2ccc3cc(Cl)ccc3c2)C1` (racemic), in the series on Plasma, the Activity worked out at 40 µM. Further, the IC50 at Coagulation factor X worked out at 247 nM.

These data come from ChEMBL document CHEMBL1140480, “Amino(methyl) pyrrolidines as novel scaffolds for factor Xa inhibitors” (Bioorg Med Chem Lett, 2007).
